Laboratory results: patent publication US4889906A, “Amine salts of 1,4,2-oxazaphospholidine-4-acetic acid, 2-alkoxy-2-oxides” (Monsanto Company, priority 1988, dated 1989)
Where “and” joins values, the source holds several entries; their conditions need not be identical. Equal entries are not always repeated. Structures can show the parent of a compound that is named as a salt.

Experiments:
Type in all cases: in vivo
Barnyardgrass = assay: Post-emergent herbicide activity, greenhouse; details: 5.6 g/m^2
Excerpt: (§1) Top soil was placed in pans having holes in the bottom and compacted to a depth of 0.95 to 1.27 cm from the top of the pan. A predetermined number of seeds of each of several plant species or vegetative propagules for perennial plant species were placed on the soil and pressed into the soil surface. The seeds or propagules were covered with soil and leveled. The pans were then placed on a bench in the greenhouse and watered as needed for germination and growth. After the plants reached the desired age (2 to 3 weeks) each pan, except the control pans, was removed to a spraying chamber and sprayed by means of an atomizer. In the spray solution, an emulsifying agent was added to give a spray solution which contains about 0.4% by volume of the emulsifier. The spray solution contained a sufficient amount of the compound of Example 1 to give an application rate of the active ingredient of 2.8 g/m^2 (25 lbs. per acre) and 5.6 g/mz (50 lbs. per acre), while applying a total amount of solution equivalent to 187 ml/m^2 (200 gal per acre). The pans were returned to the greenhouse and watered as before, and the injury to the plants as compared to those in control pans was observed after 14 days after spraying, and again, 27 days after spraying.

Canada Thistle = assay: Post-emergent herbicide activity, greenhouse; details: 5.6 g/m^2
Excerpt: as §1

Cocklebur = assay: Post-emergent herbicide activity, greenhouse; details: 5.6 g/m^2
Excerpt: as §1

Common Lambsquarters = assay: Post-emergent herbicide activity, greenhouse; details: 5.6 g/m^2
Excerpt: as §1

Downy Brome = assay: Post-emergent herbicide activity, greenhouse; details: 5.6 g/m^2
Excerpt: as §1

Morningglory = assay: Post-emergent herbicide activity, greenhouse; details: 5.6 g/m^2
Excerpt: as §1

Pennsylvania Smartweed = assay: Post-emergent herbicide activity, greenhouse; details: 5.6 g/m^2
Excerpt: as §1

Quackgrass = assay: Post-emergent herbicide activity, greenhouse; details: 5.6 g/m^2
Excerpt: as §1

Rhizone Johnsongrass = assay: Post-emergent herbicide activity, greenhouse; details: 5.6 g/m^2
Excerpt: as §1

Velvetleaf = assay: Post-emergent herbicide activity, greenhouse; details: 5.6 g/m^2
Excerpt: as §1

Yellow Nutsedge = assay: Post-emergent herbicide activity, greenhouse; details: 5.6 g/m^2
Excerpt: as §1

[1] = test system: fescue (Kentucky bluegrass No. 31); assay: Plant growth regulating activity, greenhouse; details: 0.56 g/m^2 (5 lbs. per acre), two weeks
Protocol: Established stands of fescue (Kentucky bluegrass No. 31) in pots having an area of about 100 cm (16 square inches) were trimmed to a uniform height. Duplicate pots were removed to a spraying chamber and sprayed by means of an atomizer as in Example 3. The application rate of the active ingredient was 0.56 g/m^2 (5 lbs. per acre) while applying a total amount of solution equivalent to 187 ml/m^2 (200 gal/acre). The pots were returned to the greenhouse and watered with the controls on a daily basis. After two weeks, the height of the grass was measured.

plants = assay: Biological activity, greenhouse tests according to Examples 3 and 4; details: according to the procedure of Examples 3 and 4
Excerpt: as §1, with “The pans were returned to the greenhouse and watered as before, and the injury to the plants as compared to those in control pans was observed after 14 days after spraying, and again, 27 days after spraying.” left out
Established stands of fescue (Kentucky bluegrass No. 31) in pots having an area of about 100 cm (16 square inches) were trimmed to a uniform height. […] After two weeks, the height of the grass was measured. […]

COP1(=O)CN(CC(=O)O)CO1 (stereo not drawn) [Example 1, triethylamine salt of 1,4,2-oxazaphospholidine-4-acetic acid, 2-methoxy-2-oxide]
Plant Response After 14 Days (Barnyardgrass; 14 days after spraying): 1 (25-49% inhibition)
Plant Response After 27 Days (Barnyardgrass; 27 days after spraying): 1 (25-49% inhibition)
Plant Response After 14 Days (Canada Thistle; 14 days after spraying): 0 (0-24% inhibition)
Plant Response After 27 Days (Canada Thistle; 27 days after spraying): 0 (0-24% inhibition)
Plant Response After 14 Days (Cocklebur; 14 days after spraying): 1 (25-49% inhibition)
Plant Response After 27 Days (Cocklebur; 27 days after spraying): 1 (25-49% inhibition)
Plant Response After 14 Days (Common Lambsquarters; 14 days after spraying): 0 (0-24% inhibition)
Plant Response After 27 Days (Common Lambsquarters; 27 days after spraying): 0 (0-24% inhibition)
Plant Response After 14 Days (Downy Brome; 14 days after spraying): 0 (0-24% inhibition)
Plant Response After 27 Days (Downy Brome; 27 days after spraying): 0 (0-24% inhibition)
Plant Response After 14 Days (Morningglory; 14 days after spraying): 1 (25-49% inhibition)
Plant Response After 27 Days (Morningglory; 27 days after spraying): 1 (25-49% inhibition)
Plant Response After 14 Days (Pennsylvania Smartweed; 14 days after spraying): 0 (0-24% inhibition)
Plant Response After 27 Days (Pennsylvania Smartweed; 27 days after spraying): 0 (0-24% inhibition)
Plant Response After 14 Days (Quackgrass; 14 days after spraying): 0 (0-24% inhibition)
Plant Response After 27 Days (Quackgrass; 27 days after spraying): 1 (25-49% inhibition)
Plant Response After 14 Days (Rhizone Johnsongrass; 14 days after spraying): 0 (0-24% inhibition)
Plant Response After 27 Days (Rhizone Johnsongrass; 27 days after spraying): 0 (0-24% inhibition)
Plant Response After 14 Days (Velvetleaf; 14 days after spraying): 0 (0-24% inhibition)
Plant Response After 27 Days (Velvetleaf; 27 days after spraying): 0 (0-24% inhibition)
Plant Response After 14 Days (Yellow Nutsedge; 14 days after spraying): 0 (0-24% inhibition)
Plant Response After 27 Days (Yellow Nutsedge; 27 days after spraying): 1 (25-49% inhibition)
average growth rate of treated fescue relative to controls [1]: 43 % of the controls
growth of treated grass over two-week period ([1]; duplicate pots, control pots grew average 199.58 mm): 80 mm and 90 mm
discoloration or other sign of phytotoxicity ([1]; fescue): did not show any discoloration or other sign of phytotoxicity

COP1(=O)CN(CC(=O)O)CO1 (stereo not drawn) [Example 2, 1,4,2-oxazaphospholidine-4-acetic acid, 2-alkoxy-2-oxide]
biological activity (post-emergent herbicide and plant growth regulating), in words (plants): Satisfactory results are achieved

COP1(=O)CN(CC(=O)O)CO1 (stereo not drawn) [Example 5, Triisopropylamine Salt of 1,4,2-Oxazaphospholidine-4-Acetic Acid, 2-Methoxy-2-Oxide]
biological activity (post-emergent herbicide and plant growth regulating), in words (plants): Satisfactory results are achieved
